One test relates to JIMT-1 cells. As to the kind of experiment: Transfection efficiency of PD-nanoplexes with/without saponin, flow cytometry (GFP). To be noted: GFP-DNA PD-nanoplexes, saponin 2 μg/ml. The format is cell-based, human. On the procedure:
After biophysical characterisation had established that nanoplexes of the large plasmid DNA and the poly-lysine peptide were formed, cell experiments were performed: transfections. […] Without wishing to be bound by any theory, the latter effect is most likely due to insufficient complexing of DNA. […] JIMT-1-cells (DSMZ no.: ACC 589) and Neuro-2A- cells (DSMZ no.: ACC 148) were transfected with nanoplexes containing relatively large Cas9-GFP-plasmid, with and without GE1741-Co-application or SO1861-Co-application at a non-toxic concentration, when the cell which is to be transfected is considered. The transfection efficiency of all transfection conditions was measured after 48 h incubation time using flow cytometry by comparison to the negative control in terms of fluorescence intensity (for example, cells contacted with the nanoparticles in the absence of saponin). The efficiency of GE1741-based transfections and SO1861-based transfections was also compared with efficiency of Lipofectamine3000™-based transfection of the nanoparticles. Transfections were performed according to protocols commonly known and applied in the field (Clochard et al., 2020; Sama et al., 2018a; Sama et al., 2017; Sama et al., 2018b). […] Transfection efficiency of GE1741-mediated PD-transfection and SO1861-mediated PD-transfections on Neuro-2A cells and JIMT-1 cells was assessed. […]

The test system of a further test is Neuro-2A cells. The test is described as above. The class given is cell-based, murine. The protocol: After biophysical characterisation had established that nanoplexes of the large plasmid DNA and the poly-lysine peptide were formed, cell experiments were performed: transfections. […] Without wishing to be bound by any theory, the latter effect is most likely due to insufficient complexing of DNA. […] JIMT-1-cells (DSMZ no.: ACC 589) and Neuro-2A- cells (DSMZ no.: ACC 148) were transfected with nanoplexes containing relatively large Cas9-GFP-plasmid, with and without GE1741-Co-application or SO1861-Co-application at a non-toxic concentration, when the cell which is to be transfected is considered. The transfection efficiency of all transfection conditions was measured after 48 h incubation time using flow cytometry by comparison to the negative control in terms of fluorescence intensity (for example, cells contacted with the nanoparticles in the absence of saponin). The efficiency of GE1741-based transfections and SO1861-based transfections was also compared with efficiency of Lipofectamine3000™-based transfection of the nanoparticles. Transfections were performed according to protocols commonly known and applied in the field (Clochard et al., 2020; Sama et al., 2018a; Sama et al., 2017; Sama et al., 2018b). […] Transfection efficiency of GE1741-mediated PD-transfection and SO1861-mediated PD-transfections on Neuro-2A cells and JIMT-1 cells was assessed. Cells were transfected with Cas9-GFP-DNA containing PD-nanoplexes, with and without GE1741 or SO1861 (final concentration of the saponin was 2 μg/ml). In Neuro-2A cells and JIMT-1 cells transection efficiency varied between 30% and 40%. Lipofectamin3000 served as reference. n≥3; a significant difference compared to the GE1741-free transfections or SO1861-free transfections was apparent, U-test, p≤0.05.
FIG. 4A, B. Transfection efficiency of saponin-mediated PD (Cas9-GFP)-transfections on Neuro-2A cells (FIG. 4A) and on JIMT-1-cells (FIG. 4B). Neuro-2A cells (A) and JIMT-1 cells (B) were transfected with GFP-DNA (i.e. a plasmid comprising the GFP DNA) bearing PD-nanoplexes or with Cas9-GFP-DNA bearing PD-nanoplexes, with and without the highest non-toxic saponin Co-administration (GE1741 Co-administration at 2 μg/ml or SO1861 Co-administration at 2 μg/ml). While GFP-DNA-transfections reached high efficiencies of around 70%, approximately 40% of all cells expressed GFP after Cas9-GFP-transfection. […] N≥3; *: significant difference compared to the saponin-free transfection (only nuclease), U-test.
JIMT-1-cells (human breast carcinoma) and Neuro-2A-cells (murine neuroblastoma) were transfected with nanoplexes, containing Cas9-GFP-plasmid, with and without saponin GE1741-co-application or saponin SO1861-co-application (that is to say, the saponin is added to the cell culture together with the addition of the nanoparticles comprising the nucleic acid that is to be transfected in the presence of the saponin), in a non-toxic concentration when the saponins are considered. The mass ratios for the peptide and the nucleic acid (plasmid DNA) in the nanoparticles were selected considering the dynamic light scattering (DLS) measurements and considering the aforementioned earlier assessed toxicity and earlier performed efficiency studies. The transfection efficiency of all transfection conditions was measured after 48 h incubation time via flow cytometry by comparison to the negative control in terms of fluorescence intensity (FIG. 4). […]

The text below walks through data of patent US20240279684A1, “CYTOSOLIC DELIVERY OF GENOME EDITING TOOLS” (SAPREME TECHNOLOGIES B.V., priority 2021, published 2024).

“Also recorded” adds a separate entry of the source.

Turning to `CC(=O)OC1C(C)OC(OC2C(C)OC(OC(=O)C34CCC(C)(C)CC3C3=CCC5C6(C)CCC(OC7OC(C(=O)O)C(O)C(OC8OCC(O)C(O)C8O)C7OC7OC(CO)C(O)C(O)C7O)C(C)(C=O)C6CCC5(C)C3(C)CC4O)C(OC3OC(C)C(OC4OCC(O)C(OC5OCC(O)C(O)C5O)C4O)C(O)C3O)C2O)C(O)C1OC(C)=O` (stereo not shown) [GE1741], the “transfection efficiency (cells expressing GFP)” value in the test with JIMT-1 cells is “around 70%”; with Neuro-2A cells (GFP-DNA PD-nanoplexes, saponin 2 μg/ml, Neuro-2A) it was “around 70%”. For the same compound, in the test on Neuro-2A cells (large plasmid PD-nanoplexes, Neuro-2A and JIMT-1), the “transfection modulating properties compared to SO1861” value is reported as “slightly better transfection modulating properties; also recorded: even more improved transfection efficiency”. The “transfection efficiency compared with Lipofectamine3000” value with Neuro-2A cells (nanoplexes of relatively large DNA plasmid and poly-lysine, saponin present) is listed as “higher than obtainable with current gold standard Lipofectamine3000™”.
